Test results as given in ChEMBL document CHEMBL5143608, “Peptide-based long-acting co-agonists of GLP-1 and cholecystokinin 1 receptors as novel anti-diabesity agents” (Eur J Med Chem, 2022).
Activity calls are given as the source filed them. The calls are words filed in the database; no cut-off is given here.

Experiments:
Mus musculus [1] = assay: Anti-diabesity activity against db/db mouse assessed as increase in islet area at 25 nmol/kg, sc administered every 2 days for 3 weeks by H and E staining based analysis; format: functional, organism-based; details: time 21.0 day
[2] = target: T1, Glucagon-like peptide 1 receptor (Homo sapiens, UniProt P43220); assay: Agonist activity at human GLP-1R expressed in HEK293 cells assessed as cAMP release incubated for 20 min by HTRF analysis; format: functional, cell-based; details: hek293
T1 sequence (P43220 whole entry): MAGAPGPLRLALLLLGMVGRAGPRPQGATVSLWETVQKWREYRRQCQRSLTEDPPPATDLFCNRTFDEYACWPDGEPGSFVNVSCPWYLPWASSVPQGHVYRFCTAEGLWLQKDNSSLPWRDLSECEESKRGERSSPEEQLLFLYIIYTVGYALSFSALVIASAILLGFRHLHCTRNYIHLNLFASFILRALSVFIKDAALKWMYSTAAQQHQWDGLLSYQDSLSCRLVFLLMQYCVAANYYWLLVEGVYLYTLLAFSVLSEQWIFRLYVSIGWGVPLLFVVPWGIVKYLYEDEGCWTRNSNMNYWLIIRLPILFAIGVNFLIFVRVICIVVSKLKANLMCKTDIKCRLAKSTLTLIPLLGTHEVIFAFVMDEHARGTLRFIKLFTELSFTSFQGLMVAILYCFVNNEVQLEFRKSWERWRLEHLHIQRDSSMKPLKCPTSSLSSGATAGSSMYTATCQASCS

Mus musculus [3] = assay: Anti-diabesity activity against DIO C57BL/6 mouse assessed as increase in adiponectin level in plasma at 25 nmol/kg, sc administered every 2 days for 3 weeks by ELISA; format: functional, organism-based; details: time 21.0 day
[4] = Pancreatic insult activity in db/db mouse assessed as increase in lipase level in serum at 25 nmol/kg, sc administered every 2 days for 12 weeks; format: toxicity, organism-based; details: in vivo, 2016 h
[5] = target: T2, Cholecystokinin receptor type A (Homo sapiens, UniProt P32238); assay: Agonist activity at human CCK1R expressed in HEK293 cells assessed as ERK1/2 phosphorylation incubated for 5 mins by AlphaScreen assay; format: functional, cell-based; details: hek293
T2 sequence (P32238 whole entry): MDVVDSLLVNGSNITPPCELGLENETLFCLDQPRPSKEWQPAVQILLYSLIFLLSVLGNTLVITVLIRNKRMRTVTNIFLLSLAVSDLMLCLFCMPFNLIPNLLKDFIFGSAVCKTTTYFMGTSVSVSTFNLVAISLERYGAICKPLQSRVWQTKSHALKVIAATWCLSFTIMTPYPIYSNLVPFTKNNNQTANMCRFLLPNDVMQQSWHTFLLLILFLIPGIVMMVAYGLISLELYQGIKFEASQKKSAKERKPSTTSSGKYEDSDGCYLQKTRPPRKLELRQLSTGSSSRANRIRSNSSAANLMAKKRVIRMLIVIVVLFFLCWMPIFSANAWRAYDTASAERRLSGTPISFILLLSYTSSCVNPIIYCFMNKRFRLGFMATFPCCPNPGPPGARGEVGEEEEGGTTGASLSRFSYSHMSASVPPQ

[6] = target: T1, Glucagon-like peptide 1 receptor; assay: Agonist activity at human GLP-1R expressed in CHO cells assessed as cAMP release incubated for 20 min by HTRF analysis; format: functional, cell-based
[7] = Hepatotoxicity in db/db mouse assessed as aspartate aminotransferase level in plasma at 100 nmol/kg, sc administered once daily for 7 days; format: toxicity, organism-based; details: in vivo, 168 h, time 7 day
[8] = Pancreatic insult activity in DIO C57BL/6 mouse assessed as lipase level in serum at 25 nmol/kg, sc administered every 2 days for 3 weeks; format: toxicity, organism-based; details: in vivo, 504 h, time 21 day
Mus musculus [9] = assay: Anti-diabesity activity against DIO C57BL/6 mouse assessed as improvement in glucose tolerance at 25 nmol/kg, sc administered every 2 days for 3 weeks by OGTT; format: functional, organism-based; details: time 21.0 day
Mus musculus [10] = assay: Anti-diabesity activity against db/db mouse assessed as increase in insulin sensitivity by measuring reduction in plasma insulin level at 25 nmol/kg, sc administered every 2 days for 12 weeks by ELISA; format: functional, organism-based
[11] = Pancreatic insult activity in db/db mouse assessed as increase in amylase level in serum at 25 nmol/kg, sc administered every 2 days for 12 weeks; format: toxicity, organism-based; details: in vivo, 2016 h
Mus musculus [12] = assay: Hypoglycemic activity in db/db mouse assessed as improvement in glucose tolerance at 25 nmol/kg, ip administered 30 min before oral glucose administration and measured upto 120 mins by OGTT; format: functional, organism-based
[13] = Hepatotoxicity in DIO C57BL/6 mouse assessed as aspartate aminotransferase level in plasma at 100 nmol/kg, sc administered once daily for 7 days; format: toxicity, organism-based; details: in vivo, 168 h, time 7 day
Mus musculus [14] = assay: Hypoglycemic activity in ICR mouse assessed as improvement in glucose tolerance at 25 nmol/kg, ip administered 30 min before oral glucose administration and measured upto 120 mins by OGTT; format: functional, organism-based

Structure (SMILES)	Activity (Mus musculus [1])	EC50 [2] [nM]	Activity (Mus musculus [3])	Activity [4]	EC50 [5] [nM]	EC50 [6] [nM]	Activity [7]	Activity [8]	Activity (Mus musculus [9])	Activity (Mus musculus [10])	Activity [11]	Activity (Mus musculus [12])	Activity [13]	Activity (Mus musculus [14])
CCCC[C@H](NC(=O)[C@H](Cc1ccc(CS(=O)(=O)O)cc1)NC(=O)[C@H](CC(=O)O)NC(=O)COCCOCCNC(=O)COCCOCCNC(=O)[C@H](CCCCN)NC(=O)CNC(=O)[C@H](CCCCN)NC(=O)[C@@H](NC(=O)[C@H](CC(C)C)NC(=O)[C@H](Cc1c[nH]c2ccccc12)NC(=O)[C@H](CCC(=O)O)NC(=O)[C@@H](NC(=O)[C@H](Cc1ccccc1)NC(=O)[C@H](CCC(=O)O)NC(=O)[C@H](CCCCNC(=O)COCCOCCNC(=O)COCCOCCNC(=O)CC[C@H](NC(=O)CCCCCCCCCCCCCCCCC(=O)O)C(=O)O)NC(=O)[C@H](C)NC(=O)[C@H](C)NC(=O)[C@H](CCC(=O)O)NC(=O)[C@H](CCC(=O)O)NC(=O)[C@H](CCC(=O)O)NC(=O)[C@H](CC(C)C)NC(=O)[C@@H](NC(=O)[C@H](CCC(=O)O)NC(=O)[C@@H](NC(=O)[C@@H](NC(=O)[C@H](CC(=O)O)NC(=O)[C@H](CC(N)=O)NC(=O)[C@@H](NC(=O)[C@H](Cc1ccc(O)cc1)NC(=O)[C@@H](NC(=O)CNC(=O)[C@H](CCC(=O)O)NC(=O)C(C)(C)NC(=O)[C@@H](N)Cc1cnc[nH]1)[C@@H](C)O)[C@@H](C)O)C(C)C)[C@@H](C)O)[C@@H](C)O)[C@@H](C)CC)[C@@H](C)CC)C(=O)NCC(=O)N[C@@H](Cc1c[nH]c2ccccc12)C(=O)N[C@@H](CCCC)C(=O)N(C)[C@H](CC(=O)O)C(=O)N(C)[C@@H](Cc1ccccc1)C(N)=O	Active	0.074	Active	Toxic	0.83	0.057	Non-Toxic	Non-Toxic	Active	Active	Toxic	Active	Non-Toxic	–
CCCC[C@H](NC(=O)[C@H](Cc1ccc(CS(=O)(=O)O)cc1)NC(=O)[C@H](CC(=O)O)NC(=O)COCCOCCNC(=O)COCCOCCNC(=O)[C@H](CCCNC(=N)N)NC(=O)CNC(=O)[C@H](CCCCN)NC(=O)[C@@H](NC(=O)[C@H](CC(C)C)NC(=O)[C@H](Cc1c[nH]c2ccccc12)NC(=O)[C@H](C)NC(=O)[C@@H](NC(=O)[C@H](Cc1ccccc1)NC(=O)[C@H](CCC(=O)O)NC(=O)[C@H](CCCCNC(=O)COCCOCCNC(=O)COCCOCCNC(=O)CC[C@H](NC(=O)CCCCCCCCCCCCCCCCC(=O)O)C(=O)O)NC(=O)[C@H](C)NC(=O)[C@H](C)NC(=O)[C@H](CCC(N)=O)NC(=O)CNC(=O)[C@H](CCC(=O)O)NC(=O)[C@H](CC(C)C)NC(=O)[C@H](Cc1ccc(O)cc1)NC(=O)[C@H](CO)NC(=O)[C@H](CO)NC(=O)[C@@H](NC(=O)[C@H](CC(=O)O)NC(=O)[C@H](CO)NC(=O)[C@@H](NC(=O)[C@H](Cc1ccccc1)NC(=O)[C@@H](NC(=O)CNC(=O)[C@H](CCC(=O)O)NC(=O)[C@H](C)NC(=O)[C@@H](N)Cc1cnc[nH]1)[C@@H](C)O)[C@@H](C)O)C(C)C)[C@@H](C)CC)C(C)C)C(=O)NCC(=O)N[C@@H](Cc1c[nH]c2ccccc12)C(=O)N[C@@H](CCCC)C(=O)N(C)[C@H](CC(=O)O)C(=O)N(C)[C@@H](Cc1ccccc1)C(N)=O	Active	–	Active	Toxic	1.25	–	Non-Toxic	Non-Toxic	Active	Active	Toxic	Active	Non-Toxic	Active
